{"source": "PubChem BioAssay AID1259407", "about": "(Chemical Carcinogenesis Research Information System (CCRIS), 2018)", "system": "CCRIS mutagenicity, Ames/micronucleus/aberration tests", "assay": "CCRIS mutagenicity studies", "note": "Activity calls are given as the source filed them. No rule for the calls is given here."}
{"compound": "Nc1ccccc1", "values": [{"measurement": "mutagenic call", "setting": "End Point: IN VITRO CHROMOSOMAL ABERRATIONS, Test System: CHINESE HAMSTER OVARY CELLS, Metabolic Activation: NONE", "result": "inactive; negative"}, {"measurement": "mutagenic call", "setting": "End Point: IN VITRO CHROMOSOMAL ABERRATIONS, Test System: CHINESE HAMSTER OVARY CELLS, Metabolic Activation: RAT, LIVER, S-9, AROCLOR 1254", "result": "active; positive"}, {"measurement": "mutagenic call", "setting": "End Point: IN VITRO MICRONUCLEUS, Test System: CHL/IU CELLS, Metabolic Activation: RAT, LIVER, S-9, PHENOBARBITAL AND 5,6-BENZOFLAVONE", "result": "active; positive"}, {"measurement": "mutagenic call", "setting": "End Point: IN VIVO MICRONUCLEUS, Test System: BONE MARROW, Species: MOUSE, Strain/Sex: B6C3F1/MALE, Route: GAVAGE", "result": "active; positive"}, {"measurement": "mutagenic call", "setting": "End Point: In vivo chromosomal aberrations, Test System: Bone marrow erythrocytes, Species: Rat, Strain/Sex: PVG/Male, Route: Oral", "result": "active; positive (structural changes) at 500 mg/kg (p<0.01)"}, {"measurement": "mutagenic call", "setting": "End Point: In vivo micronucleus, Test System: Bone marrow erythrocytes, Species: Mouse, Strain/Sex: CRH/Male, Route: Intraperitoneal", "result": "active; positive (p<0.05)"}, {"measurement": "mutagenic call", "setting": "Test System: AMES SALMONELLA TYPHIMURIUM, Strain/Indicator: TA97, Metabolic Activation: NONE, Method: STANDARD PLATE", "result": "inactive; negative"}, {"measurement": "mutagenic call", "setting": "Test System: AMES SALMONELLA TYPHIMURIUM, Strain/Indicator: TA97, Metabolic Activation: RAT, LIVER, S-9, AROCLOR 1254, Method: STANDARD PLATE", "result": "inactive; negative"}, {"measurement": "mutagenic call", "setting": "Test System: AMES SALMONELLA TYPHIMURIUM, Strain/Indicator: TA98(NR), Metabolic Activation: NONE, Method: PREINCUBATION", "result": "inactive; negative"}, {"measurement": "mutagenic call", "setting": "Test System: AMES SALMONELLA TYPHIMURIUM, Strain/Indicator: TA98(NR), Metabolic Activation: RAT, LIVER, S-9, AROCLOR 1254, Method: PREINCUBATION", "result": "inactive; negative"}, {"measurement": "mutagenic call", "setting": "Test System: AMES SALMONELLA TYPHIMURIUM, Strain/Indicator: TA98, Metabolic Activation: HAMSTER, LIVER, S-9, AROCLOR 1254, Method: STANDARD PLATE", "result": "inactive; negative"}, {"measurement": "mutagenic call", "setting": "Test System: AMES SALMONELLA TYPHIMURIUM, Strain/Indicator: TA98, Metabolic Activation: HAMSTER, LIVER, S-9, Method: STANDARD PLATE", "result": "inactive; negative"}, {"measurement": "mutagenic call", "setting": "Test System: AMES SALMONELLA TYPHIMURIUM, Strain/Indicator: TA98, Metabolic Activation: MOUSE, LIVER, S-9, AROCLOR 1254, Method: STANDARD PLATE", "result": "inactive; negative"}, {"measurement": "mutagenic call", "setting": "Test System: AMES SALMONELLA TYPHIMURIUM, Strain/Indicator: TA98, Metabolic Activation: MOUSE, LIVER, S-9, Method: STANDARD PLATE", "result": "inactive; negative"}, {"measurement": "mutagenic call", "setting": "Test System: AMES SALMONELLA TYPHIMURIUM, Strain/Indicator: TA98, Metabolic Activation: NONE, Method: STANDARD PLATE", "result": "inactive; negative"}, {"measurement": "mutagenic call", "setting": "Test System: AMES SALMONELLA TYPHIMURIUM, Strain/Indicator: TA98, Metabolic Activation: PEA APICAL BUD S-9, Method: PREINCUBATION", "result": "inactive; negative"}, {"measurement": "mutagenic call", "setting": "Test System: AMES SALMONELLA TYPHIMURIUM, Strain/Indicator: TA98, Metabolic Activation: PEA APICAL BUD S-9, Method: STANDARD PLATE", "result": "inactive; negative"}, {"measurement": "mutagenic call", "setting": "Test System: AMES SALMONELLA TYPHIMURIUM, Strain/Indicator: TA98, Metabolic Activation: RAT, LIVER, S-9, AROCLOR 1254, Method: STANDARD PLATE", "result": "inactive; negative"}, {"measurement": "mutagenic call", "setting": "Test System: AMES SALMONELLA TYPHIMURIUM, Strain/Indicator: TA98, Metabolic Activation: RAT, LIVER, S-9, ETHANOL, Method: PREINCUBATION", "result": "inactive; negative"}, {"measurement": "mutagenic call", "setting": "Test System: AMES SALMONELLA TYPHIMURIUM, Strain/Indicator: TA98, Metabolic Activation: RAT, LIVER, S-9, PHENOBARBITAL, Method: PREINCUBATION", "result": "inactive; negative"}, {"measurement": "mutagenic call", "setting": "Test System: AMES SALMONELLA TYPHIMURIUM, Strain/Indicator: TA98, Metabolic Activation: RAT, LIVER, S-9, PYRAZOLE, Method: PREINCUBATION", "result": "inactive; negative"}, {"measurement": "mutagenic call", "setting": "Test System: AMES SALMONELLA TYPHIMURIUM, Strain/Indicator: TA98, Metabolic Activation: RAT, LIVER, S-9, Method: STANDARD PLATE", "result": "inactive; negative"}, {"measurement": "mutagenic call", "setting": "Test System: AMES SALMONELLA TYPHIMURIUM, Strain/Indicator: TA100(NR), Metabolic Activation: NONE, Method: PREINCUBATION", "result": "inactive; negative"}, {"measurement": "mutagenic call", "setting": "Test System: AMES SALMONELLA TYPHIMURIUM, Strain/Indicator: TA100(NR), Metabolic Activation: RAT, LIVER, S-9, AROCLOR 1254, Method: PREINCUBATION", "result": "inactive; negative"}, {"measurement": "mutagenic call", "setting": "Test System: AMES SALMONELLA TYPHIMURIUM, Strain/Indicator: TA100, Metabolic Activation: HAMSTER, LIVER, S-9, AROCLOR 1254, Method: STANDARD PLATE", "result": "inactive; negative"}, {"measurement": "mutagenic call", "setting": "Test System: AMES SALMONELLA TYPHIMURIUM, Strain/Indicator: TA100, Metabolic Activation: HAMSTER, LIVER, S-9, Method: STANDARD PLATE", "result": "inactive; negative"}, {"measurement": "mutagenic call", "setting": "Test System: AMES SALMONELLA TYPHIMURIUM, Strain/Indicator: TA100, Metabolic Activation: MOUSE, LIVER, S-9, AROCLOR 1254, Method: STANDARD PLATE", "result": "inactive; negative"}, {"measurement": "mutagenic call", "setting": "Test System: AMES SALMONELLA TYPHIMURIUM, Strain/Indicator: TA100, Metabolic Activation: MOUSE, LIVER, S-9, Method: STANDARD PLATE", "result": "inactive; negative"}, {"measurement": "mutagenic call", "setting": "Test System: AMES SALMONELLA TYPHIMURIUM, Strain/Indicator: TA100, Metabolic Activation: NONE, Method: STANDARD PLATE", "result": "inactive; negative"}, {"measurement": "mutagenic call", "setting": "Test System: AMES SALMONELLA TYPHIMURIUM, Strain/Indicator: TA100, Metabolic Activation: PEA APICAL BUD S-9, Method: PREINCUBATION", "result": "inactive; negative"}, {"measurement": "mutagenic call", "setting": "Test System: AMES SALMONELLA TYPHIMURIUM, Strain/Indicator: TA100, Metabolic Activation: PEA APICAL BUD S-9, Method: STANDARD PLATE", "result": "inactive; negative"}, {"measurement": "mutagenic call", "setting": "Test System: AMES SALMONELLA TYPHIMURIUM, Strain/Indicator: TA100, Metabolic Activation: RAT, LIVER, S-9, AROCLOR 1254, Method: PREINCUBATION", "result": "inactive; negative"}, {"measurement": "mutagenic call", "setting": "Test System: AMES SALMONELLA TYPHIMURIUM, Strain/Indicator: TA100, Metabolic Activation: RAT, LIVER, S-9, AROCLOR 1254, Method: STANDARD PLATE", "result": "inactive; negative"}, {"measurement": "mutagenic call", "setting": "Test System: AMES SALMONELLA TYPHIMURIUM, Strain/Indicator: TA100, Metabolic Activation: RAT, LIVER, S-9, ETHANOL, Method: PREINCUBATION", "result": "inactive; negative"}, {"measurement": "mutagenic call", "setting": "Test System: AMES SALMONELLA TYPHIMURIUM, Strain/Indicator: TA100, Metabolic Activation: RAT, LIVER, S-9, PHENOBARBITAL, Method: PREINCUBATION", "result": "inactive; negative"}, {"measurement": "mutagenic call", "setting": "Test System: AMES SALMONELLA TYPHIMURIUM, Strain/Indicator: TA100, Metabolic Activation: RAT, LIVER, S-9, PYRAZOLE, Method: PREINCUBATION", "result": "inactive; negative"}, {"measurement": "mutagenic call", "setting": "Test System: AMES SALMONELLA TYPHIMURIUM, Strain/Indicator: TA100, Metabolic Activation: RAT, LIVER, S-9, Method: STANDARD PLATE", "result": "inactive; negative"}, {"measurement": "mutagenic call", "setting": "Test System: AMES SALMONELLA TYPHIMURIUM, Strain/Indicator: TA102, Metabolic Activation: RAT, LIVER, S-9, AROCLOR 1254, Method: STANDARD PLATE", "result": "inactive; negative"}, {"measurement": "mutagenic call", "setting": "Test System: AMES SALMONELLA TYPHIMURIUM, Strain/Indicator: TA102, Metabolic Activation: RAT, LIVER, S-9, PYRAZOLE, Method: PREINCUBATION", "result": "inactive; negative"}, {"measurement": "mutagenic call", "setting": "Test System: AMES SALMONELLA TYPHIMURIUM, Strain/Indicator: TA1535, Metabolic Activation: HAMSTER, LIVER, S-9, AROCLOR 1254, Method: STANDARD PLATE", "result": "inactive; negative"}, {"measurement": "mutagenic call", "setting": "Test System: AMES SALMONELLA TYPHIMURIUM, Strain/Indicator: TA1535, Metabolic Activation: HAMSTER, LIVER, S-9, Method: STANDARD PLATE", "result": "inactive; negative"}, {"measurement": "mutagenic call", "setting": "Test System: AMES SALMONELLA TYPHIMURIUM, Strain/Indicator: TA1535, Metabolic Activation: MOUSE, LIVER, S-9, AROCLOR 1254, Method: STANDARD PLATE", "result": "inactive; negative"}, {"measurement": "mutagenic call", "setting": "Test System: AMES SALMONELLA TYPHIMURIUM, Strain/Indicator: TA1535, Metabolic Activation: MOUSE, LIVER, S-9, Method: STANDARD PLATE", "result": "inactive; negative"}, {"measurement": "mutagenic call", "setting": "Test System: AMES SALMONELLA TYPHIMURIUM, Strain/Indicator: TA1535, Metabolic Activation: NONE, Method: STANDARD PLATE", "result": "inactive; negative"}, {"measurement": "mutagenic call", "setting": "Test System: AMES SALMONELLA TYPHIMURIUM, Strain/Indicator: TA1535, Metabolic Activation: RAT, LIVER, S-9, AROCLOR 1254, Method: STANDARD PLATE", "result": "inactive; negative"}, {"measurement": "mutagenic call", "setting": "Test System: AMES SALMONELLA TYPHIMURIUM, Strain/Indicator: TA1535, Metabolic Activation: RAT, LIVER, S-9, PYRAZOLE, Method: PREINCUBATION", "result": "inactive; negative"}]}
